Here are results for two molecules from patent US10363231B2, “Compounds and methods of treating ocular disorders” (CASE WESTERN RESERVE UNIVERSITY, priority 2014, dated 2019).

“Also recorded” adds a separate entry of the source.

For one data set, the target named is T1, RPE65 (Bos taurus, UniProt Q28175).
T1 construct: from tissue; host or cells: bovine retinal pigment epithelium (RPE) microsomes
Briefly: Retinoid isomerase activity assay (11-cis-retinol production in RPE microsomes). In kind it is biochemical, Bovine. The conditions noted are these: for IC50: primary amine, decline in 11-cis-retinol production in RPE microsomes, read-out: Inhibition of RPE65. The protocol: Bovine RPE microsomes were isolated from RPE homogenates by differential centrifugation as previously described. The resulting microsomal precipitate was resuspended in 10 mM Bis-Tris propane/HCl buffer, pH 7.4, to achieve a total protein concentration of […]. Then the mixture was placed in a quartz cuvette and irradiated for 6 min at 4° C. with a ChromatoUVE transilluminator (model TM-15; UVP) to eliminate residual retinoids. After irradiation, DTT was added to the RPE microsomal mixture to achieve a final concentration of 5 mM.
[…] The resulting mixture was pre incubated at room temperature for 5 min. Then 1 μl of all-trans-retinol (in DMF, final concentration 20 μM) was added. The resulting mixture was incubated at 37° C. for 15 min to 2 h. The reaction was quenched by adding 300 μl of methanol, and products were extracted with 300 μl of hexanes. Production of 11-cis-retinol was quantified by normal phase HPLC with 10% (v/v) ethyl acetate in hexanes as the eluent at a flow rate of 1.4 ml·min^−1. Retinoids were detected by monitoring their absorbance at 325 nm and quantified based on a standard curve representing the relationship between the amount of 11-cis-retinol and the area under the corresponding chromatographic peak.
Primary amines of compounds derived from the aldehydes were subsequently tested for their ability to inhibit the RPE65-dependent retinoid isomerization reaction in dose- and time dependent reactions as exemplified by QEB-B-001 (FIG. 3B). Amines were incubated with RPE microsomes in the presence of all-trans-retinol and the 11-cis-retinoid binding protein, CRALBP.
Progress of the enzymatic reaction was monitored by HPLC separation of retinoids and quantification of 11-cis-retinol with a decrease of 11-cis-retinol production reflecting inhibition of RPE65 by a tested amine. […] This moderate inhibition could be enhanced by shortening the polyene chain length (TEA amines) or diminished by introducing an extra positive charge into the tested compounds (QEA-G amines).

In data set [1] the test system is Abca4^−/−Rdh8^−/− mice. Briefly: Light-induced acute retinal degeneration in Abca4−/−Rdh8−/− mice (OCT, 11-cis-retinal, ERG). It is filed as in vivo. The conditions noted are these: for OCT imaging of the retina: 3 d after bleaching; for average ONL thickness: OCT 3 d after bleaching. The protocol: Abca4^−/−Rdh8^−/− double knockout mice were generated as previously described. Mice were housed in the animal facility at the School of Medicine, Case Western Reserve University, where they were maintained under either complete darkness or in a 12-h light (˜300 lux) and 12-h dark cycle. All tested primary amines were suspended in 100 μl of soybean oil with less than 10% (v/v) DMSO and were administered by oral gavage with a 22-gauge feeding needle. Experimental manipulations in the dark were done under dim red light transmitted through a Kodak No. 1 safelight filter (transmittance >560 nm). All animal procedures and experiments were approved by the Case Western Reserve University Animal Care Committees and conformed to recommendations of the American Veterinary Medical Association Panel on Euthanasia and the Association of Research for Vision and Ophthalmology.
After dark adaptation for 24 h, 4-week-old male or female Abca4^−/−Rdh8^−/− mice with pupils dilated by 1% tropicamide were exposed to fluorescent light (10,000 lx; 150 W spiral lamp, Commercial Electric) for 1 h in a white paper bucket (Papersmith), and then kept in the dark for an additional 3 d. Development of retinal degeneration was then examined by ultra-high resolution spectral-domain OCT (SDOCT; Bioptigen) and ERGs as previously described.
Then animals were euthanized and their eyes were collected and homogenized in 10 mM sodium phosphate buffer, pH 7.4, containing 50% methanol (v/v) and 40 mM hydroxylamine. The resulting mixture was extracted with 4 ml of hexanes. Extracts were dried in vacuo, reconstituted in 300 μl of hexanes and 100 μl of the extract was injected into an HPLC for analysis with 10% (v/v) ethyl acetate in hexanes.
For practical reasons, only eight of these leading compounds (QEA-B-001-NH2, B-002-NH2, C-001-NH2, C-003-NH2, C006-NH2, E-002-NH2, TEA-B-002-NH2, and C00-2-NH2) along with retinylamine as a control were selected for further testing in Abca4^−/−Rdh8^−/− mice, an animal model for light-induced retinal degeneration (Table 2). Additionally, two novel amines with moderate inhibition of RPE65 (QEA-A-006-NH2 and QEA-B-003-NI 12) and one with strong inhibition (QEA-A-005-NH2) were added to the first test group for comparison. Mice were gavaged with 1 mg of a test compound and then kept in the dark for 24 h prior to being exposed to bright light (˜10,000 lux) for 1 h. Retinal damage was assessed with OCT that measured the thickness of the outer nuclear layer and by quantification of tissue 11-cis retinal levels. An example is shown for imaging results in FIG. 4A and for 11-cis-retinal quantification in FIG. 4B. Additionally, extracts of livers obtained from treated mice were analyzed by HPLC to estimate the amounts of corresponding amides (FIG. 4C).
Once the time course of retinylamine's inhibitory effect was established, we investigated the correlation between the level of inhibition and the protective effect on the retina. Four week old Abca4^−/−Rdh8^−/− mice were gavaged with 0.1, 0.2, and 0.5 mg of retinylamine, respectively, and kept in the dark for 24 h. Mice then were bleached with 10,000 lux bright light for 1 h. Measured as described above, the recovery of visual chromophore was inhibited by about 40%, 80%, and 95%, respectively by these tested drug doses (FIGS. 5B and 5C). Bleached mice were kept in the dark for 3 d, and then imaged by OCT (FIGS. 6A and 6B). […] The average ONL thickness in the latter group of mice was 51.1±5.8 μm, well within the range of healthy retinas. […] Their average ONL thickness was 34.4±17.4 μm. […] In an equivalent experiment, mice were kept in the dark for 7 days prior to quantification of visual chromophore levels. (Amounts of 11-cis-retinal reflect the concentration of rhodopsin and thus can be used to verify the health of photoreceptor cells).

The next data set concerns WT mice. In words: Visual chromophore recovery assay (inhibition of the visual cycle in vivo). Particulars: for inhibition of the recovery of visual chromophore: 24 h after gavage; for recovery of 11-cis-retinal in the eye, of the pre-bleached level: at 6 h after bleaching.
Data set [2] deals with Abca4^−/−Rdh8^−/− mice. In words: Light-induced acute retinal degeneration in Abca4−/−Rdh8−/− mice (OCT, 11-cis-retinal, ERG). It is filed as in vivo. Particulars: 2 mg; dark 24 h, then 10,000 lux 1 h.
Where [3] appears, read: 0.1 mg, dark 7 days after bleaching.
Setting [4] is: 0.2 mg, dark 7 days after bleaching.

T1 sequence (Q28175 whole entry): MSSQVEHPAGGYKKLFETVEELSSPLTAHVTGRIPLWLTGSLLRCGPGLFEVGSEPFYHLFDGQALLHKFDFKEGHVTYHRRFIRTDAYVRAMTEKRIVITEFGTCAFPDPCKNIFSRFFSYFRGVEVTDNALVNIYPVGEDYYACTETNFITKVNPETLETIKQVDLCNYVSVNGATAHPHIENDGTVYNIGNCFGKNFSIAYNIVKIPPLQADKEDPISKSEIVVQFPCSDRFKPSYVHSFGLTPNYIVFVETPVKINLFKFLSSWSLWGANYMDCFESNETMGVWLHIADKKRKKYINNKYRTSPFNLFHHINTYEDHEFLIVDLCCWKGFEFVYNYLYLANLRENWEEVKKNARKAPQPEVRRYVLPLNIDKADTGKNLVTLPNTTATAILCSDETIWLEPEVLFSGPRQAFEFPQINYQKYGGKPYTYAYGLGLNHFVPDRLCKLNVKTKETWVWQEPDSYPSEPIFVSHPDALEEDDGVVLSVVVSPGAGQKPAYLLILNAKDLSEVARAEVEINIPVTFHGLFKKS

For `CC1=C(/C=C/C(C)=C/C=C/C(C)=C/CN)C(C)(C)CCC1` [QEA-A-001-NH2, retinylamine], at RPE65, the IC50 was under 10 µM. Further, the “protection against retinal degeneration” value in the data set on Abca4^−/−Rdh8^−/− mice [1] (0.1 mg dose, bright light exposure) is “failed to protect”. The “OCT imaging of the retina” value was “severe retinal degeneration” in the data set with Abca4^−/−Rdh8^−/− mice [1] (0.1 mg), “partially protected” with Abca4^−/−Rdh8^−/− mice [1] (0.2 mg) and “clear intact ONL image” in the data set with Abca4^−/−Rdh8^−/− mice [1] (0.5 mg). In addition, the 11-cis-retinal levels is 323±48 pmol/eye in the data set with Abca4^−/−Rdh8^−/− mice [1] (setting [3]) and 445±37 pmol/eye in the data set on Abca4^−/−Rdh8^−/− mice [1] (setting [4]). For the same molecule, in the data set on Abca4^−/−Rdh8^−/− mice [1] (setting [3]), the ERG responses result is “attenuated ERG responses”. For the same molecule, the “average ONL thickness” value with Abca4^−/−Rdh8^−/− mice [1] (0.2 mg) came to 34.4±17.4 μm; in the data set with Abca4^−/−Rdh8^−/− mice [1] (0.5 mg), 51.1±5.8 μm. The “ERG scotopic a wave responses” value in the data set with Abca4^−/−Rdh8^−/− mice [1] (setting [4]) was “same ERG scotopic a wave responses as unbleached control mice”; in the data set on Abca4^−/−Rdh8^−/− mice [1] (0.5 mg, dark 7 days after bleaching), “same ERG scotopic a wave responses as unbleached control mice”. Also, the “inhibition of the recovery of visual chromophore” value in the data set with WT mice (0.1 mg) is “about 40%”; in the data set with WT mice (0.2 mg), about 80%; in the data set with WT mice (0.5 mg), about 95%. The “recovered 11-cis-retinal” value with WT mice (0.2 mg, day 3 after administration) came to 61±2.2%. Moreover, in the data set with WT mice (0.2 mg, day 7), the “inhibitory effect on 11-cis-retinal regeneration” value is on record as “nearly disappeared”. Also, the “recovery of 11-cis-retinal in the eye, of the pre-bleached level” value in the data set with WT mice (0.2 mg, light 2 h after administration) stood at 50±13%; in the data set with WT mice (0.2 mg, light 24 h after administration), 22±5.0%. Further, the “recovery of 11-cis-retinal” value in the data set with WT mice (0.5 mg, 7 days after administration) is given as 56±9.1%. Moreover, in the data set on WT mice (0.1 to 0.5 mg, gavage 2 h to 7 days before light), the “time point with the strongest inhibition of the retinoid cycle” value is recorded as 24 h. Moreover, the “duration of inhibition of the retinoid cycle” value in the data set with WT mice (gavage 2 h to 7 days before light, 11-cis-retinal 6 h after bleaching) is “more than 7 days”. Further, the “protection of ONL (averaged ONL thickness by OCT)” value with Abca4^−/−Rdh8^−/− mice [2] is “protected”.
`CC(/C=C/C=C(/C=C/C1=CCCCC1)C(C)(C)C)=C\CN` [QEA-B-001-NH2]: on RPE65, the “inhibition of RPE65” value is recorded as “modest or non-inhibitor; also recorded: did not inhibit” and the IC50 was over 200 µM. In addition, the “prevention of light-induced retinal degeneration” value in the data set on Abca4^−/−Rdh8^−/− mice [1] (gavaged with 1 mg, dark 24 h, ~10,000 lux 1 h, OCT) is given as “inability to prevent”.
